# The source made the active and inactive calls. No cut-off for these calls is given here.
# Legend:
# Rattus norvegicus [1] = assay: Anxiolytic activity in water deprived rat assessed as increase in number of accepted shocks at 10 mg/kg, po after 1 hr by Vogel punished drinking test; format: functional, organism-based
# Liver microsome [2] = assay: Intrinsic clearance in Wistar rat liver microsomes at 2.5 uM; format: ADME
# [3] = molecular target: T1, Metabotropic glutamate receptor 5 (Homo sapiens, UniProt P41594); assay: Displacement of [3H]MPEP from recombinant human mGluR5a expressed in A18 cells measured after 1 hr; format: cell-based
# T1 sequence (P41594 whole entry): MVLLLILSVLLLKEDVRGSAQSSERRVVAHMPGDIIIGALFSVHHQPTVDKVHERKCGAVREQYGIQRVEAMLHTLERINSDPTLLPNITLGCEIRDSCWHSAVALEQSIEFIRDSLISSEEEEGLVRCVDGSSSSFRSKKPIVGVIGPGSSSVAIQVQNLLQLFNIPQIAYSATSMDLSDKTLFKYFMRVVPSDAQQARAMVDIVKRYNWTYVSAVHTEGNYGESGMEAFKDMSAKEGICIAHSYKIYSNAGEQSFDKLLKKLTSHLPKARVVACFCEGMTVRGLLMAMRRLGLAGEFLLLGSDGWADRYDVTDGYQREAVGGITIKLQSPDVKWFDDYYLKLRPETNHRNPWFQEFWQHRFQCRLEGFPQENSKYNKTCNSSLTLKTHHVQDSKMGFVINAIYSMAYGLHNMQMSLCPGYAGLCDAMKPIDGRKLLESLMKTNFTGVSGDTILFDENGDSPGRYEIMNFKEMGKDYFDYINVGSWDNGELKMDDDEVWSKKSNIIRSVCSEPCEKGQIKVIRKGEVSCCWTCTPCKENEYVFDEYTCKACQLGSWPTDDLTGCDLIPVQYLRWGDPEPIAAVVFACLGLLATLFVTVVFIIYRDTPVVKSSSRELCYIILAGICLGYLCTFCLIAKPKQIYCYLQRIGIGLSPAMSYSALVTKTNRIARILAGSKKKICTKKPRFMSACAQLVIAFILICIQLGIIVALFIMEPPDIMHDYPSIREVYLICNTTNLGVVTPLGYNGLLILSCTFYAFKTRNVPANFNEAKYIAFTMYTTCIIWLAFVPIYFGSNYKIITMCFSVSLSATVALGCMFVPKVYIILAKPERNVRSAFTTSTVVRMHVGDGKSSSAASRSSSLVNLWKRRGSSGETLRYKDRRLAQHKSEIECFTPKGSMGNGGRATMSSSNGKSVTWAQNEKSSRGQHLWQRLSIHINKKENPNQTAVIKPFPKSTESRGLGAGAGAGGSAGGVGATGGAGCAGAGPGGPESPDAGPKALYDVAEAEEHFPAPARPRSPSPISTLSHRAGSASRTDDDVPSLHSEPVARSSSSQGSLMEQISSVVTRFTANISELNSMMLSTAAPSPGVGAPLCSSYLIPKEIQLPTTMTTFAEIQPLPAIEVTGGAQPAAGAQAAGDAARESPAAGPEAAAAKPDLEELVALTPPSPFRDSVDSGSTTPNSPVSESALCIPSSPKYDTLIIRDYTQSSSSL
# [4] = molecular target: T2, Metabotropic glutamate receptor 5 (Rattus norvegicus, UniProt P31424); assay: Displacement of [3H]MPEP from rat mGlu5 receptor expressed in rat cerebrocortical membrane measured after 1 hr; format: cell membranes
# T2 sequence (P31424 whole entry): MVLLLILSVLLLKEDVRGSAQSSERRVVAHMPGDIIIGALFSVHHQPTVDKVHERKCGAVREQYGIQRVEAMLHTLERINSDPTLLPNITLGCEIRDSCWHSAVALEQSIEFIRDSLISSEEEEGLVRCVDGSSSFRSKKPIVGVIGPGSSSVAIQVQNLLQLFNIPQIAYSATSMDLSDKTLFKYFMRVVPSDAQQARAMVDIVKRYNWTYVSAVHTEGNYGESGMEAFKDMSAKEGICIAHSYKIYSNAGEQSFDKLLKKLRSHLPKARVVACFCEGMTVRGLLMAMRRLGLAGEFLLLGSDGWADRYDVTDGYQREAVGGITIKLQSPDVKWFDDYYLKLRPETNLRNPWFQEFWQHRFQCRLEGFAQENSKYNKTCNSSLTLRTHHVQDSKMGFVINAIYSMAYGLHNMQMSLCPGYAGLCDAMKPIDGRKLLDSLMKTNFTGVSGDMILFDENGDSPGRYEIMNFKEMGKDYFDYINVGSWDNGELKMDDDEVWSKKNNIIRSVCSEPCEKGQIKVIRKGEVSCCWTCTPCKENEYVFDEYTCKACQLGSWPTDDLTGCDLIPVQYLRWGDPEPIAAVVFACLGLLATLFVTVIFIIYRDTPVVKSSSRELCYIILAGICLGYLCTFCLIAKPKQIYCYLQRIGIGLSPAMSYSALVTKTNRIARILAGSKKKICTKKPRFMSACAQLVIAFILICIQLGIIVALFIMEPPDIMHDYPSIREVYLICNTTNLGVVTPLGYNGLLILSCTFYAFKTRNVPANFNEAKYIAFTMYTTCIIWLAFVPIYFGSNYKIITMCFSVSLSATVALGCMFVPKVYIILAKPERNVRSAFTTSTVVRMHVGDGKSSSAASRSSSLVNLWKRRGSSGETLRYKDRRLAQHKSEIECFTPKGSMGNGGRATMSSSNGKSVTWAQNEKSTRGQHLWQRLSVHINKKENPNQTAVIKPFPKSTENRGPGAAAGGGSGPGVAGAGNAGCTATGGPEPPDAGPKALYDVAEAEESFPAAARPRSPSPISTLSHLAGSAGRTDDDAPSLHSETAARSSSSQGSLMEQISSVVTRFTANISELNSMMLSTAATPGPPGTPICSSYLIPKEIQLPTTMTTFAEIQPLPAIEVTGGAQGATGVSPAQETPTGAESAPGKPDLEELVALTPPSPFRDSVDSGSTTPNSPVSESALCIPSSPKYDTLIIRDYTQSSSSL
# Liver microsome [5] = assay: Intrinsic clearance in human liver microsomes at 2.5 uM; format: ADME
# Rattus norvegicus [6] = assay: Anxiolytic activity in water deprived rat assessed as increase in number of accepted shocks at 1 mg/kg, po after 1 hr by Vogel punished drinking test; format: functional, organism-based
# Homo sapiens [7] = assay: Toxicity in human assessed as suicidal ideation and behavior administered as qd for 10 to 14 days by multiple ascending dose study; format: organism-based; conditions: in vivo
# Homo sapiens [8] = species: Homo sapiens; assay: Toxicity in human at 1 to 120 mg by single ascending dose study; format: organism-based; conditions: in vivo
# Homo sapiens [9] = assay: Toxicity in human assessed as change in ECG administered as qd for 10 to 14 days by multiple ascending dose study; format: organism-based; conditions: in vivo
# Homo sapiens [10] = assay: Toxicity in human assessed as suicidal ideation and behavior administered as bid for 10 to 14 days by multiple ascending dose study; format: organism-based; conditions: in vivo
# Homo sapiens [11] = assay: Toxicity in human assessed as change in ECG administered as bid for 10 to 14 days by multiple ascending dose study; format: organism-based; conditions: in vivo
# [12] = molecular target: T2, Metabotropic glutamate receptor 5; assay: Displacement of [3H]-MPEP from rat mGlu5 receptor expressed in HEK293 cell membranes after 1 hr by scintillation counting analysis
# [13] = molecular target: T1, Metabotropic glutamate receptor 5; assay: Displacement of [3H]-MPEP from human mGlu5 receptor expressed in HEK293 cell membranes after 1 hr by scintillation counting analysis
SMILES,CLH (Liver microsome [2]) [mL/min/g],Ki [4] [nM],CLH (Liver microsome [5]) [mL/min/g],further results
Cc1nc(C#Cc2cccnc2)cs1,–,–,–,Activity (Rattus norvegicus [1]): Active
Cc1ccc(S(=O)(=O)c2cnc3ccccc3c2-c2ccc(Cl)cc2)cc1,17.5,9.5,2.12,Ki [3]: 17 nM
O=S(=O)(c1ccc(Cl)c(F)c1)c1cnc2cc(F)ccc2c1-c1ccc(F)cc1,0.88,5.2,0.5,–
Cc1ccc(S(=O)(=O)c2cnc3ccccc3c2N2CCOCC2)cc1C,18,68,3.37,Ki [3]: 52 nM
N#Cc1cccc(S(=O)(=O)c2cnc3cc(F)ccc3c2-c2ccc(Cl)cc2)c1,0.25,5.3,0.31,Activity (Rattus norvegicus [6]): Active; Activity (Homo sapiens [7]): Non-toxic; Activity (Homo sapiens [8]): Non-toxic; Activity (Homo sapiens [9]): Non-toxic; Activity (Homo sapiens [10]): Non-toxic; Activity (Homo sapiens [11]): Non-toxic
Cc1ccc(S(=O)(=O)c2cnc3ccccc3c2N2CCC(C)CC2)cc1,17.4,22,3.54,–
O=S(=O)(c1cc(Cl)cc(Cl)c1)c1cnc2cc(F)ccc2c1-c1ccc(F)cc1,1.03,11.5,0.2,–
O=S(=O)(c1ccc(F)c(F)c1)c1cnc2c(F)cccc2c1-c1ccc(Cl)cc1,0.19,8.4,0.28,–
Cc1ccc(S(=O)(=O)c2sc3ncccc3c2-c2ccc(Cl)cc2)cc1,13.8,15,2.31,–
CN1CC(=O)N=C1NC(=O)Nc1cccc(Cl)c1 [FENOBAM ANHYDROUS],–,–,–,IC50 [12]: 51 nM; IC50 [13]: 51 nM

# — ChEMBL document CHEMBL3763102, “4-Aryl-3-arylsulfonyl-quinolines as negative allosteric modulators of metabotropic GluR5 receptors: From HTS hit to development candidate” (Bioorg Med Chem Lett, 2016)
